The source made the active and inactive calls. How the calls were made is not given here.
Test system: Leishmania major promastigote growth inhibition
Assay: antileishmanial activity against L. major promastigotes – EC50, dose response (AID 2008)

Row | Compound | EC50
1 | COc1cc(CNCc2cccs2)ccc1OCc1ccccc1 | 162 nM
2 | Cn1nc(-c2ccc(Cl)cc2)nc2c(=O)n(C)c(=O)nc1-2 | > 5000 nM (inactive)
3 | Cc1ccc(OCCCCn2ccnc2)c(Cl)c1 | 131 nM
4 | COc1ccc2cc3[n+](cc2c1OC)CCc1cc2c(cc1-3)OCO2 | 375 nM
5 | Cc1ccc2nc(Cl)c3nnnn3c2c1 | 765 nM
6 | C=CCn1cccc(/C=C/C(=O)c2ccc(C(C)(C)C)cc2)c1=S | 1790 nM
7 | COc1ccccc1-n1cnc2c(c1=O)c1nc3ccccc3nc1n2-c1ccc(C)c(C)c1 | 81.8 nM
8 | Cc1ccc(-c2cc3cccc[n+]3cc2-c2ccc(C)cc2)cc1 | 228 nM
9 | C=CCc1ccc(OCCCCCN2CCOCC2)c(OC)c1 | 970 nM
10 | Fc1cccc(-c2nnn3c2nc(Cl)c2ccccc23)c1 | 490 nM
11 | O=S(=O)(CCSc1nc2ccccc2s1)c1nc2ccccc2s1 | 716 nM
12 | c1ccc(C2CCC(N3CCC(N4CCCCC4)CC3)CC2)cc1 (stereo unspecified) | 2530 nM
13 | Cc1ccc(-c2cc(-c3ccc(C)cc3)[n+](C)o2)cc1 | 183 nM
14 | CCN(CC)CCOC(c1ccccc1)c1ccc(C)cc1 (stereo unspecified) | 1100 nM
15 | Cn1cc(CN2CCC(CO)CC2)c(-c2ccc(Oc3ccccc3)cc2)n1 | 164 nM
16 | COC(=O)c1ccc2c(c1)C(C)(C)C(/C=C/c1ccc(OC)c(OC)c1OC)=[N+]2C | 2.45 nM
17 | CC12CCC(C(=O)N(CCCN3CCN(Cc4ccccc4)CC3)C1=O)C2(C)C (stereo unspecified) | 565 nM
18 | COc1cccc2c(=O)c(C/C=C(/C)Cl)c(C)[nH]c12 | 107 nM
19 | CCCCCCCCCCCCCCCCn1cc[n+](C)c1 | 35 nM

Row | Compound | EC50
20 | O=C(COc1ccccc1F)NC1CCN(Cc2ccccc2)CC1 | 140 nM
21 | Cc1cc(C)nc(/N=c2/ssnc2Cl)c1 | 353 nM
22 | CC1=C(C(=O)Nc2cc(-c3cccc(F)c3)[nH]n2)C2(CCCCC2)OC1=O | 379 nM
23 | CCOC(=O)C(=Cc1cc(=O)c(OC)co1)C(=O)OCC | 165 nM
24 | CNc1ccccc1C(C)(C)c1cc(-c2cccc(Br)c2)no1 | 2780 nM
25 | Cc1ccccc1-n1ncc2c([N+](=O)[O-])cc([N+](=O)[O-])cc21 | 60.9 nM
26 | COCCCN1CCN(c2nnc3n2-c2sc(Br)cc2C(c2ccccc2Cl)=NC3)CC1 | 595 nM
27 | CCCCCCCCCCCCCCCC[n+]1cccc(C(=O)N(CC)CC)c1 | 625 nM
28 | Cc1nn(-c2nc3ccccc3[nH]2)c(N)c1-c1ccc(Cl)cc1 | 1540 nM
29 | CC1(C)C(=O)C=C[C@]2(C)[C@H]3CC[C@@]4(C)[C@H](c5ccoc5)OC(=O)[C@H]5O[C@]54[C@]3(C)[C@H](O)C[C@@H]12 | 982 nM
30 | CCCOC(=O)CSC1=C(C#N)C(c2ccccc2Cl)CC(=O)N1 (stereo unspecified) | 122 nM
31 | CCN(CC)CCN(C)C1CCC(c2ccccc2)CC1 (stereo unspecified) | 823 nM
32 | CCOCCN1CCN(c2nnc3n2-c2ccc(Cl)cc2C(c2ccccc2Cl)=NC3)CC1 | 1170 nM
33 | CCOC(=O)N=Nc1c2ccccc2c2nc3no[nH]c3nc12 | 784 nM
34 | Cc1ccc(S(=O)(=O)c2ccc(Oc3cccc(C)c3)cc2)cc1 | 178 nM
35 | Cc1nnc(Nc2ccccn2)c2ccccc12 | 722 nM
36 | CSc1ccc(CNC2CN3CCC2CC3)cc1 (stereo unspecified) | 1140 nM
37 | Nc1nsc2ccccc12 | 391 nM
38 | Cc1ccc2c(c1)-c1cc(C)nn1C(c1ccc3c(c1)OCO3)N2 (stereo unspecified) | 1590 nM

Row | Compound | EC50
39 | COc1ccc(C2=NCC(CSc3nnc(-c4ccc5c(c4)OCO5)o3)S2)cc1 (stereo unspecified) | 187 nM
40 | COCCCNCCCCOc1ccc(Br)cc1Cl | 1.73 nM
41 | N#CC(c1ccc(Cl)cc1)c1ccc2c(C(F)(F)F)cc(C(F)(F)F)nc2n1 (stereo unspecified) | 564 nM
42 | O=[N+]([O-])c1cc(-c2nnc(C34CC5CC(CC(C5)C3)C4)o2)cc([N+](=O)[O-])c1 | 115 nM
43 | CCN(CC)c1ccc(NC(=O)CN2CCN(S(=O)(=O)c3cc(Cl)ccc3OC)CC2)cc1 | 3640 nM
44 | O=C(O)CCC(=O)Nc1ccc(N2CCCCCC2)cc1 | 1740 nM
45 | Cc1cccc(-c2cc3c(N=O)c4ccccc4c-3n[nH]2)c1 | 1540 nM
46 | N#CC(c1cccc(Cl)c1)c1ccc2c(C(F)(F)F)cc(C(F)(F)F)nc2n1 (stereo unspecified) | 1180 nM
47 | Cc1nc2c(=O)n(C)c(=O)nc-2n(C)n1 | 201 nM
48 | C[n+]1c(-c2ccccc2)cc(CCCCc2cc(-c3ccccc3)[n+](C)c(-c3ccccc3)c2)cc1-c1ccccc1 | 702 nM
49 | COC(=O)[C@@H]1[C@@H](C(=O)OC)C2(c3ccccc3-c3ccccc32)N(c2ccc(Cl)cc2)N1C#N | > 5000 nM (inactive)
50 | CC[n+]1c(/C=C/N(C)c2ccccc2)sc2ccc(Cl)cc21 | 172 nM
51 | O=C1c2ccccc2C(=O)C12Cc1ccccc1N1CCN(c3ccccc3)CC12 (stereo unspecified) | 1910 nM
52 | NC(=O)c1cn(C2OC(CO)C(O)C2O)c2ncnc(N)c12 (stereo unspecified) | 164 nM
53 | Nc1nn(-c2ccccc2)c(N)c1N=Nc1ccc2c(c1)OCO2 | 846 nM
54 | O=C(NCC(c1cccnc1)N1CCN(c2ccc(F)cc2)CC1)Oc1ccccc1 (stereo unspecified) | 111 nM
55 | Cn1c(=O)c2nc(-c3ccccc3)oc2c2ccccc21 | 1870 nM
56 | CCOC(=O)c1c2c(n(C)c1C)C(=O)C(=O)c1ccc(Br)cc1-2 | 85.7 nM

— PubChem BioAssay AID2008 (University of Pittsburgh Molecular Library Screening Center, 2009)
